Test results: paper PMC3565340, “Crystal Structure of Dimeric Flavodoxin from Desulfovibrio gigas Suggests a Potential Binding Region for the Electron-Transferring Partner” (International Journal of Molecular Sciences, 2013)

Molecular target: T1, Fld (flavodoxin from Desulfovibrio gigas) (Megalodesulfovibrio gigas, UniProt Q01095)
T1 construct: native, purified from anaerobically grown D. gigas cells; untagged; 146 residues, 15 kDa; residues 2-146 modelled; homodimer
Assay: X-ray crystal structure of the complex, […] Å
Format: binding
Settings: non-covalently bound native cofactor, co-purified; crystals at pH 6.5 (bis-Tris, PEG550, CaCl2); semiquinone-like state

T1 sequence (Q01095 whole entry, the tested form may be a part): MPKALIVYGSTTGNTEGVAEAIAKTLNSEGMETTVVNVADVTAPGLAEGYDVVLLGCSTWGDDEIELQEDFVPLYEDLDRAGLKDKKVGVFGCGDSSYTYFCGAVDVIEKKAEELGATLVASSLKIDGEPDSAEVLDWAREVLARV

Cc1cc2nc3c(=O)[nH]c(=O)nc-3n(C[C@H](O)[C@H](O)[C@H](O)COP(=O)(O)O)c2cc1C [FMN, flavin mononucleotide]
X-ray crystal structure of the complex, 1.3 Å: the position of FMN was well defined by the electron density
